# Entries after “also recorded” stand apart in the source; their conditions may differ.
# Test system: NCI-60 cell lines
# Assay type: cell-based, human
Substance,Cell Line the peptide is associated with (peptide recovered from phage library selection on this NCI-60 cell line),Cell Line (NCI-60 cell line the peptide is associated with),Cell Line with which the peptide (and its tripeptide motif) is associated,Cell Line (NCI-60 cell line the peptide and its motif are associated with)
ALNRGSR,MDA-MB-231 Breast,–,–,–
RGGSPPV,RXF393 Renal,–,–,–
RSTLGPS,–,HT-29 Colon,–,–
AGLSGGT,–,–,EKVX-Lung,–
GRLAKSI,–,–,–,UACC 257 Melanoma
NSFGLRY,–,COLO-205-Colon,–,–
SHCGPSN,–,SF-295 CNS,–,–
RIGRVWA,–,–,Molt-4-Leukemia,–
EVGGGLT,–,–,CCRF-CEM Leukemia,–
ASLSVVI,UO31 Renal,–,–,–
GLRGVVK,–,HCT-116 Colon,–,–
LVSTRWA,RXF393 Renal,–,–,–
SARQGGR,–,–,–,M14 Melanoma
VPPSGGR,RXF393 Renal,–,–,–
SSGSVDS,–,–,H322-Lung,–
DLGSVQH,–,HT-29 Colon,–,–
SGARLRS,T-47D Breast,–,–,–
SGGLHEG,–,–,SR Leukemia,–
RFSGGLQ,–,–,–,SK-MEL-28 Melanoma
ATGRVLG,–,–,Molt-4-Leukemia,–
SFAGRIL,T-47D Breast,–,–,–
LIGGVLH,–,–,–,IGROV1 Ovarian
SGSVNRG,–,–,RPMI-8226-Leukemia,–
MRGSGRN,–,KM-12C Colon,–,–
GVVQAVS,–,–,–,SK-MEL-5 Melanoma
RSSSSTR,–,SNB-75 CNS,–,–

Substance,Cell Line the peptide is associated with (peptide recovered from phage library selection on this NCI-60 cell line),Cell Line (NCI-60 cell line the peptide is associated with),Cell Line with which the peptide (and its tripeptide motif) is associated,Cell Line (NCI-60 cell line the peptide and its motif are associated with)
FLLLSHR,SN12C Renal,–,–,–
DLGLRPV,–,–,Molt-4-Leukemia,–
LYVDASL,MDA-MB-435-Breast,–,–,–
LRYDLRS,–,–,RPMI-8226-Leukemia,–
DVRGRVW,–,–,H460-Lung,–
DLVGRVR,BT-549 Breast,–,–,–
GLVGRRA,–,COLO-205-Colon,–,–
VGVSQEW,TK-10 Renal,–,–,–
AVSLVVL,–,–,–,OVCAR-8 Ovarian
RAMGGAG,–,–,RPMI-8226-Leukemia,–
WLLRGFG,–,–,–,A498 Renal
PDRASDG,–,–,Hop-62-Lung,–
EGRLMLA,–,–,–,MALME-3M Melanoma
IGVLASA,–,–,–,SK-MEL-28 Melanoma
TTGSVIV,–,–,H23-Lung,–
RGSRWSS,BT-549 Breast,–,–,–
SDRGLVV,–,HCT-15 Colon,–,–
GGSFSGL,–,–,A549-Lung,–
GDSRRGV,–,–,Hop-62-Lung,–
WSATGVS,HS 578 T Breast,–,–,–
VGSVKAS,–,–,–,PC3 Prostate
RRFWAGL,–,–,H460-Lung,–
LGMGRGV,SN12C Renal,–,–,–
SNGLRVV,ACHN Renal,–,–,–
ARGVLLM,–,–,CCRF-CEM Leukemia,–
WLLSARL,–,HCC-2998-Colon,–,–

Substance,Cell Line the peptide is associated with (peptide recovered from phage library selection on this NCI-60 cell line),Cell Line (NCI-60 cell line the peptide is associated with),Cell Line with which the peptide (and its tripeptide motif) is associated,Cell Line (NCI-60 cell line the peptide and its motif are associated with)
VVMIAGS,MDA-MB-231 Breast,–,–,–
GRAGGNG,–,–,–,M14 Melanoma
GCGGVRD,–,HT-29 Colon,–,–
TVGSSLG,T-47D Breast,–,–,–
WSGGLNV,–,–,H322-Lung,–
RGSWAGV,–,HT-29 Colon,–,–
FDPGGLR,SN12C Renal,–,–,–
RGVSGRL,–,–,–,SK-MEL-28 Melanoma
RGSHLVP,–,–,CCRF-CEM Leukemia,–
LLSILKA,–,–,–,IGROV1 Ovarian
LRSYAWS,–,SNB-19 CNS; also recorded: SF-539 CNS,–,–
APGRLGP,–,–,–,OVCAR-4 Ovarian
GAHGVRL,SN12C Renal,–,–,–
TRGVIGG,T-47D Breast,–,–,–
GSVLMRG,–,–,–,OVCAR-4 Ovarian
FWISRAS,–,–,RPMI-8226-Leukemia,–
RAVCEWD,CAIK-1 Renal,–,–,–
RVSRAGG,–,–,–,PC3 Prostate
GAVSVLA,–,SF-295 CNS,–,–
EGVRGVF,A498 Renal,–,–,A498 Renal
YWFIGLG,–,–,EKVX-Lung,–
RMGLLRQ,–,–,–,M14 Melanoma
LAGSGSH,–,–,Molt-4-Leukemia,–
TYCDRAV,BT-549 Breast,–,–,–
TFRGAGV,MDA-MB-231 Breast,–,–,–
GRVGRDG,A498 Renal,–,–,–

Substance,Cell Line the peptide is associated with (peptide recovered from phage library selection on this NCI-60 cell line),Cell Line (NCI-60 cell line the peptide is associated with),Cell Line with which the peptide (and its tripeptide motif) is associated,Cell Line (NCI-60 cell line the peptide and its motif are associated with)
GLGIMGP,–,–,K-562-Leukemia,–
RRLSSIA,TK-10 Renal,–,–,–
GAGSISD,–,–,RPMI-8226-Leukemia,–
GWLNAAV,–,–,–,UACC 257 Melanoma
VWAGVLL,–,–,Hop-62-Lung,–
GGRSKKV,–,SF-268 CNS,–,–
RGSAQNF,–,–,RPMI-8226-Leukemia,–
VTRIRVS,–,–,–,UACC 257 Melanoma
FHVAGGS,–,–,SR Leukemia,–
GGVAGVS,–,–,A549-Lung,–
GWHGPSH,–,–,A549-Lung,–
GDRAVGL,UO31 Renal,–,–,–
TSLLSFR,–,–,CCRF-CEM Leukemia,–
WTERASA,–,HCT-15 Colon,–,–
RVSSETF,–,–,–,A498 Renal
LRVSRGL,TK-10 Renal,–,–,–
ALVSSHV,–,–,–,SK-MEL-2 Melanoma
FDRGVEA,–,–,K-562-Leukemia,–
GGVRIAA,–,HCT-116 Colon,–,–
YGQYGGL,–,HCT-15 Colon,–,–
AASTRSL,–,MALME-3M Melanoma,–,–
RRSSKQA,–,–,A549-Lung,–
EGLVSVV,–,–,Molt-4-Leukemia,–
RVSGSPV,NCI/ADR-RES Breast,–,–,–
YYAGGLK,–,–,Hop-62-Lung,–
QGYALRV,–,–,H23-Lung,–

Substance,Cell Line the peptide is associated with (peptide recovered from phage library selection on this NCI-60 cell line),Cell Line (NCI-60 cell line the peptide is associated with),Cell Line with which the peptide (and its tripeptide motif) is associated,Cell Line (NCI-60 cell line the peptide and its motif are associated with)
PAVAGST,HS 578 T Breast,–,–,–
GSGHSFA,–,KM-12C Colon,–,–
GRWTGSS,MCF-7 Breast,–,–,–
RGVGAKA,NCI/ADR-RES Breast,–,–,–
YTGSSPS,–,–,–,SK-OV-3-3 Ovarian
PKAGRGS,–,–,Hop-62-Lung,–
YWQHRVS,–,HCT-116 Colon,–,–
LGGAAVR,T-47D Breast,–,–,–
HVGLLRA,–,–,Hop-62-Lung,–
VDGSGDD,–,–,–,DU-145 Prostate
SAGSHPA,SN12C Renal,–,–,–
RRSGLGD,–,HCC-2998-Colon,–,–
VGSVGLG,–,–,Hop-62-Lung,–
FPGSAGS,ACHN Renal,–,–,–
GGSTVPQ,–,–,–,OVCAR-8 Ovarian
GSSRVRW,–,HCT-15 Colon,–,–
NRAVLSA,–,–,–,SK-OV-3-3 Ovarian
GESGRLS,–,–,Hop-92-Lung,–
ASLVARN,–,–,–,SK-OV-3-3 Ovarian
SRASDVT,–,SW620-Colon,–,–
VYGGRSE,CAIK-1 Renal,–,–,–
GTLRVGS,–,HT-29 Colon,–,–
SWGSGGS,–,–,Hop-92-Lung,–
AGSVTEQ,UO31 Renal,–,–,–
TRRGRLD,SN12C Renal,–,–,–
RHFGLRE,–,–,H522-Lung,–

# Source: patent US7781565B2 (priority 2006, dated 2010)
